Measured values from US9920069B2, “Compounds for treatment of fluoroquinolone-resistant bacteria” (The Board of Trustees of the University of Illinois, priority 2014, dated 2018).
In brackets after ≈: the same amount, converted by molar mass.

Legend:
[1] = system: MRSA clinical isolate SAU.846; assay: MIC, microdilution broth; format: cell-based, S. aureus; conditions: Staphylococcus aureus, MRSA, read-out: MIC
Experimental: (§1) Susceptibility testing was performed in triplicate using the microdilution broth method as outlined by the Clinical and Laboratory Standards Institute CLSI^52. MH broth was used.

[2] = system: VRE clinical isolate S234; assay: organism not typed; format: cell-based, E. faecalis; conditions: read-out: MIC
E. coli MG1655 = assay: microbe, parasite or virus in culture; format: cell-based; conditions: Escherichia coli, gyrA none, parC none
Experimental: E. coli MG1655 and the ΔAcrB strain were obtained from Prof. Cari Vanderpool at UIUC.
as §1

human topoisomerase II = target: T1, human topoisomerase II (Homo sapiens, UniProt P11388); assay: Human topoisomerase decatenation assay; format: biochemical; conditions: lowest inhibiting / highest without significant inhibition
T1 construct: purchased Inspiralis
Experimental: The decatenation assay was performed with the Human Topo II Decatenation Assay Kit (Inspiralis) according to the manufacturer's instructions with minor modifications. First, a master mix was made containing 2 μL 10× assay buffer (500 mM Tris.HCl, pH 7.5, 1250 mM NaCl, 100 mM MgCl2, 50 mM DTT, 1000 μg/mL albumin), 0.67 μL 30 mM ATP, 1.34 μL 0.1 ng/μL kDNA, and 14.3 μL of nuclease free water per sample is made. DMSO or 30× compound is added to a 0.5 mL Eppendorf tube (0.67 μL per tube). The master mix is then added to each tube (18.3 μL per tube). Finally, 1 U of human topoisomerase (1 μL of 1 U/μL stock) is added to each tube for a final volume of 20 μL. The tubes are then incubated at 37° C. for 30 min. Reactions are stopped by the addition of 20 μL of 24:1 chloroform:isoamyl alcohol and 20 μL of stop dye (40% sucrose, 1 mM EDTA, 100 mM TrisHCl pH 7.5, 0.5 μg/mL bromophenol blue). Samples were run on 1% agarose gels containing 0.5 μg/mL ethidium bromide for 1 h at 110V or until the dye front was approximately halfway down the gel. Gels were imaged on a Molecular Imager Gel Doc XR+ (Biorad).

[3] = In vivo toxicity assessment, 10 days; set-up: species or system BALB/c mice; conditions: 50 mg kg^−1 oral once-a-day 10 days; in words
Experimental: Toxicity was assessed as previously described^56. Specifically, heparinized whole blood was collected for assessment of total white blood cells, neutrophils, lymphocytes, hematocrit, platelets, creatinine, blood urea, nitrogen, albumin, alanine aminotransferase, alkaline phosphatase, and total bilirubin. Mice were euthanized by overdosing with Ketamine/Xylazine, and heart, lung, kidney, liver, spleen, gastrointestinal tract and brain were collected for histopathology. Tissue samples were fixed 24 hours in 10% neutral buffered formalin, processed, and paraffin embedded, sectioned (5 μm thickness) and stained with hematoxylin and eosin. All slides were systematically evaluated by a single board certified veterinary anatomic pathologist (SL) for evidence of acute or chronic inflammation and toxicity. All lesions were characterized, recorded, and scored for severity (minimal=1, mild=2, moderate=3, and severe=4).

[4] = system: MRSA clinical isolate SAU.3024; assay: MIC, microdilution broth; format: cell-based, S. aureus; conditions: Staphylococcus aureus
Experimental: as §1

T1 sequence (P11388 whole entry): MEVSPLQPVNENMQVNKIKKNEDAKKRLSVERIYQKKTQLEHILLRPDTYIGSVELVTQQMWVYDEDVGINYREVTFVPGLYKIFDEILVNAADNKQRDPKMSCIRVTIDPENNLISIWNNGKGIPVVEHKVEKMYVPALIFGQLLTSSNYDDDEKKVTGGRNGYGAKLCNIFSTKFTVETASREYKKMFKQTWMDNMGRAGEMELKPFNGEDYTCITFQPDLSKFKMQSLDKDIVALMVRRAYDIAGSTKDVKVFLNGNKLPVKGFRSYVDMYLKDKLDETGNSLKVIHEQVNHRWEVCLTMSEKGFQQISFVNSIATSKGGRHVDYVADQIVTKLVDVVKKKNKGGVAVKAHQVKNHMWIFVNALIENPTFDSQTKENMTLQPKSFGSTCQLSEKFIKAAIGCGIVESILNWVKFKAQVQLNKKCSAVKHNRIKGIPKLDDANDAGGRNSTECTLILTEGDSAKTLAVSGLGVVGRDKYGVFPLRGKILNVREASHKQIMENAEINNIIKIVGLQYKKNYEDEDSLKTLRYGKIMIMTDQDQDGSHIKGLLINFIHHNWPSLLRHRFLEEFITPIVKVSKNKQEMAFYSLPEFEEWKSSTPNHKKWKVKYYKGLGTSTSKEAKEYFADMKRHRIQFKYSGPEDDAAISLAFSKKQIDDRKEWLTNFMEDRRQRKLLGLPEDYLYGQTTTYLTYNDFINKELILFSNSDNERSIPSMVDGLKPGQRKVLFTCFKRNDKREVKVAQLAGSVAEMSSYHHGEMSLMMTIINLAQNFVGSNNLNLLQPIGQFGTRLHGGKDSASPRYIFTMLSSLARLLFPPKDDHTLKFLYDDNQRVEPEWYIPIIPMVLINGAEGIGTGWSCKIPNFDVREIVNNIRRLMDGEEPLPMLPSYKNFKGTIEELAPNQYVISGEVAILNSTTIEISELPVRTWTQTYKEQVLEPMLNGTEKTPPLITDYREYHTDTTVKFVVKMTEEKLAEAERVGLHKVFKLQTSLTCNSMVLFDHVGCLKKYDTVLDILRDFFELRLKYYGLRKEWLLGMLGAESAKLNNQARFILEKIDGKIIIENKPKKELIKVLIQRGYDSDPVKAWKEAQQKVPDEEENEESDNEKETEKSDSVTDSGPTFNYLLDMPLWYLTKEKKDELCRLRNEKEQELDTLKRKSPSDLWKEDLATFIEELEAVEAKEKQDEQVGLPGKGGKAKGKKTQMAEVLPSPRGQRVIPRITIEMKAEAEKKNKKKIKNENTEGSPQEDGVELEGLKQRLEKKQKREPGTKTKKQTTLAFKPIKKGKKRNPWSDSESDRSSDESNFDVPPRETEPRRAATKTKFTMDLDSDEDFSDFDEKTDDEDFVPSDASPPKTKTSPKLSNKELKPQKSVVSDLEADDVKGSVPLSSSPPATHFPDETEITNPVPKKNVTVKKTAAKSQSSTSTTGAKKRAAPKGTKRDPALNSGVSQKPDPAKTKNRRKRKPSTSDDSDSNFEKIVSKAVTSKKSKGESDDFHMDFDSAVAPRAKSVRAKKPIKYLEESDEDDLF

## Cc1cc(=O)n(C)c2c3c4c(cc12)c(C)cc(=O)n4CO3 [DNM, deoxynybomycin]
[1]
  MIC: 0.031 µg/mL (≈ 0.11 µM)

## CCn1c(=O)cc(C)c2cc3c(C)cc(=O)n4c3c(c21)OC4 [DNM-2]
[2]
  MIC: 0.25 µg/mL (≈ 0.844 µM)
E. coli MG1655
  MIC: > 24 µg/mL
Human topoisomerase II
  concentration inhibiting human topoisomerase II: > 30 µM
[3]
  hematological and non-hematological toxicity: No clinically significant evidence for myelosuppression, renal injury, or hepatic toxicity
[4]
  MIC: 0.125 µg/mL (≈ 0.422 µM)
